Target: T1, Prostaglandin G/H synthase 1 (Ovis aries, UniProt P05979)
T1 sequence (P05979 whole entry): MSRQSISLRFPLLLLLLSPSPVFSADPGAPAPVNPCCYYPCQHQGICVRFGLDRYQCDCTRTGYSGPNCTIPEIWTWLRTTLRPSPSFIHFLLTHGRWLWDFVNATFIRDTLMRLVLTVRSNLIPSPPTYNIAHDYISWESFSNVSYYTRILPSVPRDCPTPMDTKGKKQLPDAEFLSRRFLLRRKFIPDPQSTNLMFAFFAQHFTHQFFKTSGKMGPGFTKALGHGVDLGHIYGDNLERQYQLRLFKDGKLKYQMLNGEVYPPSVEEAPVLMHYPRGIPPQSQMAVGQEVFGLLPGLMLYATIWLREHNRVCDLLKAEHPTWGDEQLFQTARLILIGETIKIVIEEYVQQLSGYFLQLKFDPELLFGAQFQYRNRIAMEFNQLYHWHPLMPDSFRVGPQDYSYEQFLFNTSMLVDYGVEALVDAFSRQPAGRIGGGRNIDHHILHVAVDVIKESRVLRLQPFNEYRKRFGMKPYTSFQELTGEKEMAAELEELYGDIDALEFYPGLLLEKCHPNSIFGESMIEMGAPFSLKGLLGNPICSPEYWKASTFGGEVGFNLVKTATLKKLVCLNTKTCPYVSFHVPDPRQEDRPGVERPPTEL
Assay: Inhibition of ovine COX-1 by enzyme immuno assay

SMILES	IC50
Fc1ccc(/N=C/c2cn(Cc3ccccc3)c3ccccc23)cc1	91.1 µM
Cc1ccc(/N=C/c2cn(Cc3ccccc3)c3ccccc23)cc1	81.5 µM
FC(F)(F)c1ccc(/N=C/c2cn(Cc3ccccc3)c3ccccc23)cc1	95.5 µM
O=C(c1ccccc1)n1cc(/C=N/c2ccc(F)cc2)c2ccccc21	> 100 µM
O=C(c1ccccc1)n1cc(/C=N/c2ccc(C(F)(F)F)cc2)c2ccccc21	> 100 µM
O=C(c1ccccc1)n1cc(/C=N/c2ccc(Cl)cc2)c2ccccc21	86.1 µM

More lines, now with the values ahead:

IC50	SMILES
68.4 µM	Fc1ccc(/N=C/c2c[nH]c3ccccc23)cc1
62.3 µM	Cc1ccc(/N=C/c2c[nH]c3ccccc23)cc1
78.2 µM	FC(F)(F)c1ccc(/N=C/c2c[nH]c3ccccc23)cc1
80.2 µM	Cc1ccc(/N=C/c2cn(C(=O)c3ccccc3)c3ccccc23)cc1

— ChEMBL document CHEMBL1955864, “N-1 and C-3 substituted indole Schiff bases as selective COX-2 inhibitors: synthesis and biological evaluation” (Bioorg Med Chem Lett, 2012)
